Reference: patent US9284330B2 (priority 2011, dated 2016)
Like-named read-outs stand apart in the source and are kept apart here.

Key:
[1] = tested on: tau protein phosphorylation; assay type: cell-based; settings: Western blot, 24 h incubation
[2] = tested on: L-type Ca2+ channel; test: Blocking of L-type Ca2+ channel by high content screening analyzer, KCl-induced calcium ion influx in SH-SY5Y cells (Fluo-4-AM)
[3] = target: acetylcholinesterase (Electrophorus electricus (Electric eel) (Gymnotus electricus), UniProt O42275); test: biochemical
[4] = tested on: primary cortical neuron cells; settings: for Relative neuron activity (average): 24 h incubation; for Toxicity to primary neurons (in words): concentrations tested 0.01, 0.1 and 1 μM, 24 h
[5] = tested on: primary cortical neuron cells; test: Effect of the compounds on the morphology of neurons (microscopy); settings: 0.01 to 1 μM, 24 h
[6] = tested on: L-type Ca2+ channel; test: Blocking of L-type Ca2+ channel by patch clamp, calcium current in rat dorsal root ganglion cells; assay type: cell-based; settings: whole cell patch clamp

acetylcholinesterase, sequence (O42275 whole entry, looked up): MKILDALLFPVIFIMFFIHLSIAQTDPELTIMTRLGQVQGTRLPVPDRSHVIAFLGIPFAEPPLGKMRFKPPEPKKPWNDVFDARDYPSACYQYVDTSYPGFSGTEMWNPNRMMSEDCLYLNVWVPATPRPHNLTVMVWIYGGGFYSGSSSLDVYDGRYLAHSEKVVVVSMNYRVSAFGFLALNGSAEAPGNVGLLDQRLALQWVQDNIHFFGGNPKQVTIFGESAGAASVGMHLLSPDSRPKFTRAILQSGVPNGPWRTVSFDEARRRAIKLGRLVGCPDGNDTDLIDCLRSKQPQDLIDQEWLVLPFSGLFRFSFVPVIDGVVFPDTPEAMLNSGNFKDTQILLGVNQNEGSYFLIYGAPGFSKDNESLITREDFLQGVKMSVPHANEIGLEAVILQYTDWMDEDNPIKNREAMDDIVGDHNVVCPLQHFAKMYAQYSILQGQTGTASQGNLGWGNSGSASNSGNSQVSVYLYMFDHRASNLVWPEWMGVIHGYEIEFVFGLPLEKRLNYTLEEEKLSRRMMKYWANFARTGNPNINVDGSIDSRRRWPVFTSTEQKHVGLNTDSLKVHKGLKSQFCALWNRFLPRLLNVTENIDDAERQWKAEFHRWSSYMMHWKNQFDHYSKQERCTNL

SMILES | Intracellular tau protein phosphorylation of neurons [1] | Inhibition rate of KCl-induced calcium ion influx ([2]; 10 μM compound) [%] | Inhibition rate of KCl-induced calcium ion influx ([2]; 50 μM compound) [%] | IC50 [3] [nM] | Relative neuron activity (average) ([4]; 0.01 μM) [%] | Relative neuron activity (average) ([4]; 0.1 μM) [%] | Relative neuron activity (average) ([4]; 1 μM) [%] | Toxicity to primary neurons (in words) [4] | Effect on the morphology of neurons [5] | Inhibition rate of L-type Ca2+ channel current ([6]; 100 nmol/L compound) [%] | Inhibition rate of L-type Ca2+ channel current ([6]; 1000 nmol/L compound) [%]
CC1=C(C(=O)OC(C)C)C(c2ccccc2F)c2c(nc3c(c2N)CC(C)(C)CC3)N1 (stereo not shown) [Compound S8, 5-amino-4-(2-fluorophenyl)-2,7,7-trimethyl-1,4,6,7,8,9-hexahydrobenzo[b][1,8]napht hyridine-3-carboxylic acid isopropyl ester] | reduced | 61.63 | 93.28 | 757 | 114.7 | 101.7 | 97.7 | no significant toxicity |  |  | 
CC1=C(C(=O)OC(C)C)C(c2ccccc2Cl)c2c(nc3c(c2N)CC(C)(C)CC3)N1 (stereo not shown) [Compound S32, 5-amino-2,7,7-trimethyl-4-(2-chlorphenyl)-1,4,6,7,8,9-hexahydrobenzo[b][1,8]naphth yridine-3-carboxylic acid isopropyl ester] | reduced | 29.49 | 91.10 | 6920 | 115.5 | 106.5 | 98.6 | no significant toxicity |  |  | 
CCOC(=O)C1=C(C)Nc2nc3c(c(N)c2C1c1ccccc1Cl)CC(C)(C)CC3 (stereo not shown) [Compound S1, 5-amino-4-(2-chlorphenyl)-2,7,7-trimethyl-1,4,6,7,8,9-hexahydrobenzo[b][1,8]naphthyridine-3-carboxylic acid ethyl ester] | reduced | 29.29 | 63.60 | 768 | 110.6 | 113.9 | 97.9 | no significant toxicity | no effect on the morphology of neurons | 38.14 | 61.76
CCOC(=O)C1=C(C)Nc2nc3c(c(N)c2C1c1cccc(Cl)c1)CC(C)(C)CC3 (stereo not shown) [Compound S6, 5-amino-4-(3-chlorphenyl)-2,7,7-trimethyl-1,4,6,7,8,9-hexahydrobenzo[b][6,8]naphth yridine-3-carboxylic acid ethyl ester] | reduced | 11.30 | 95.51 | 893 | 107.1 | 105.3 | 99.0 | no significant toxicity |  |  | 
COC(=O)C1=C(C)Nc2nc3c(c(N)c2C1c1cccc([N+](=O)[O-])c1)CCCC3C (stereo not shown) [Compound S15, 5-amino-4-(3-nitrophenyl)-2,9-dimethyl-1,4,6,7,8,9-hexahydrobenzo[b][1,8]naphthyridine-3-carboxylic acid methyl ester] | reduced |  |  | 729 | 111.9 | 105.8 | 65.9 | minor toxicity |  |  | 
COC(=O)C1=C(C)Nc2nc3c(c(N)c2C1c1cccc(Cl)c1Cl)CC(C)CC3 (stereo not shown) [Compound S27, 5-amino-4-(2,3-dichlorophenyl)-2,7-dimethyl-1,4,6,7,8,9-hexahydrobenzo[b][1,8]nap hthyridine-3-carboxylic acid methyl ester] |  |  |  | 178 | 123.7 | 102.9 | 43.0 |  |  | 39.68 | 65.54
CC1=C(C(=O)OC(C)C)C(c2cccc(F)c2)c2c(nc3c(c2N)CC(C)(C)CC3)N1 (stereo not shown) [Compound S3, 5-amino-4-(3-fluorophenyl)-2,7,7-trimethyl-1,4,6,7,8,9-hexahydrobenzo[b][1,8]napht hyridine-3-carboxylic acid isopropyl ester] | reduced | 81.33 | 86.82 | 1130 | 107.7 | 102.4 | 98.8 | no significant toxicity |  |  | 
